Measurements taken from article PMC12030650, “Synthesis, Antitumor Activities, and Apoptosis-Inducing Activities of Schiff’s Bases Incorporating Imidazolidine-2,4-dione Scaffold: Molecular Docking Studies and Enzymatic Inhibition Activities” (Pharmaceuticals, 2025).
Values joined by “and” are separate entries in the source; they are usually repeats but may differ in a detail not shown here. Equal values may be shown once. Read-outs that look alike come from different tables or passages of the source.

Columns and labels:
[1] = system: human colorectal carcinoma (HCT-116); assay: MTT cytotoxicity assay, HCT-116; conditions: for IC50: Homo sapiens, HCT-116, read-out: IC50 HCT-116; for SI (selectivity index) HCT-116: WI-38 vs HCT-116
[2] = system: breast adenocarcinoma (MCF-7); assay: MTT cytotoxicity assay, MCF-7; conditions: for IC50: Homo sapiens, MCF7, read-out: IC50 MCF-7; for SI (selectivity index) MCF-7: WI-38 vs MCF-7
[3] = system: hepatoblastoma (HePG-2); assay: MTT cytotoxicity assay, HePG-2; conditions: for IC50: Homo sapiens, HepG2, read-out: IC50 HePG-2; for SI (selectivity index) HePG-2: WI-38 vs HePG-2
[4] = system: WI-38 normal fibroblast cell line; assay: MTT cytotoxicity against normal human cells; type: cell-based; conditions: for IC50: Homo sapiens
Experimental: The evaluation was conducted using a 3-(4,5-dimethylthiazol-2-yl)-2,5-diphenyltetrazolium bromide (MTT) assay, as described by the authors of [50, 51]. The cell lines were obtained from ATCC. For comparative purposes, standard drugs, such as doxorubicin and erlotinib, were employed.

[5] = biological target: T1, EGFR (Homo sapiens, UniProt P00533); assay: In vitro luminescent EGFR tyrosine kinase assay (Kinase-Glo Max); type: biochemical; conditions: read-out: Kinase Inhibition IC50 EGFR
T1 construct: purchased BPS Bioscience 40321

[6] = biological target: T2, HER2 (Homo sapiens, UniProt P04626); assay: In vitro luminescent HER2 tyrosine kinase assay (Kinase-Glo Max); type: biochemical; conditions: read-out: Kinase Inhibition IC50 HER2
T2 construct: purchased BPS Bioscience 40721
Experimental: […]. Erlotinib was probed as the standard drug in the EGFR inhibition assay, while lapatinib was tested as the […]. […].
EGFR and HER2 kinase inhibitory activities were determined based on the manufacturer’s guidelines (EGFR Kinase Assay Kit Catalog no. 40321 and HER2 Kinase Assay Kit Catalog no. 40721, BPS Bioscience, San Diego, CA).

[7] = system: HCT-116, HePG-2, and MCF-7; assay: MTT cytotoxicity, summary over the examined cancer cell lines; conditions: Homo sapiens
[8] = system: anti-apoptotic protein BCL-2 in MCF-7; assay: BCL-2 expression in MCF-7 cells (ELISA); type: cell-based, human
Experimental: (§1) Apoptosis is regulated by intrinsic pathways such as the B-cell lymphoma-2 (BCL-2) family. […] MCL-1, one of the BCL-2 family members, is likely to have a significant role in cell death. The expression of MCL-1 and BCL-2 in MCF-7 cells treated with different concentrations was studied.
(§2) Apoptosis of the MCF-7 cancer cell line was measured using the Human MCL1eia kit (ELISA Kit) for the MCL-1 enzyme assay and the Invitrogen Zymed® Bcl-2 ELISA Kit for the BCL-2 enzyme assay. The ROBONIK P2000 ELISA READER was used for analysis.

[9] = system: MCF-7 cell line; assay: Cell cycle analysis (propidium iodide, flow cytometry); type: cell-based, human
From the text: Cell cycle analysis is used to quantify DNA content distribution via flow cytometry at various cell cycle stages (pre-G1, G1, S, and G2/M). Compound 24 was selected to analyze its effect on cell cycle progression in the MCF-7 cell line at different concentrations.
Cancer cell line MCF-7 was stained with ab139418_Propidium Iodide (DNA stain) and analyzed using a FACSCalibur flow cytometer.

[10] = system: anti-apoptotic protein MCL-1 in MCF-7; assay: MCL-1 expression in MCF-7 cells (ELISA); type: cell-based, human
Experimental: as §1, §2

[11] = normal fibroblast WI-38, read-out: IC50 WI-38
[12] = read-out: average IC50 versus the examined cell lines
[13] = read-out: IC50 range against the selected cell lines

T1 sequence (P00533 25-1210): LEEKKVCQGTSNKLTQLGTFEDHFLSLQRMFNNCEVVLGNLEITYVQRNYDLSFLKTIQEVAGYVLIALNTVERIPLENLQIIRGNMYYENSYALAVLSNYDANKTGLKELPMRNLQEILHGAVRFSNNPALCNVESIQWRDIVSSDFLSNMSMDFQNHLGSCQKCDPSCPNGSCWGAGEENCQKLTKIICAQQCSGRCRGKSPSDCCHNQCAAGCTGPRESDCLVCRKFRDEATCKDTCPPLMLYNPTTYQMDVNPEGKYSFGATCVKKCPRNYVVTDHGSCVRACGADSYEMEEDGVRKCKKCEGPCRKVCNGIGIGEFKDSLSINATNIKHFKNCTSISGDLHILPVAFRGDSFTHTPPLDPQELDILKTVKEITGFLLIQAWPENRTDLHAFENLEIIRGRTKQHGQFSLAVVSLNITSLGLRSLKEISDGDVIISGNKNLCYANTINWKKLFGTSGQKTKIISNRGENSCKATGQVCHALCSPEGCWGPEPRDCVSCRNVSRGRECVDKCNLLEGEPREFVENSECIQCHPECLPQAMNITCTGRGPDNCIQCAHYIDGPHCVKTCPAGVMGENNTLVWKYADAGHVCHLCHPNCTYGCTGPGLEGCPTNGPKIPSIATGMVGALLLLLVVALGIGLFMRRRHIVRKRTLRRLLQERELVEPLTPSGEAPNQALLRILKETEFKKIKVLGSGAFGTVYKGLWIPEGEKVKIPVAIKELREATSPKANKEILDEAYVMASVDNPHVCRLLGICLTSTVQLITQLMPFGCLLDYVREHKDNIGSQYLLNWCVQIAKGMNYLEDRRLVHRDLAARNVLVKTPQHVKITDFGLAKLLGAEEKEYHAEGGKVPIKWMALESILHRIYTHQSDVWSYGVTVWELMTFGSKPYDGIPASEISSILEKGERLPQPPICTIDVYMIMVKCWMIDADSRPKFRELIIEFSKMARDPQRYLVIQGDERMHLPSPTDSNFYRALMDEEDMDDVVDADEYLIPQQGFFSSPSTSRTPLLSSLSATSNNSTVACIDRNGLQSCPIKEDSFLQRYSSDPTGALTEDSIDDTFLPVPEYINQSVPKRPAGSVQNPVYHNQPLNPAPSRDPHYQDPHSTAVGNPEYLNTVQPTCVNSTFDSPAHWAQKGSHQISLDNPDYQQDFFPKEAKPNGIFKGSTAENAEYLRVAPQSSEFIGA
T2 sequence (P04626 23-1255): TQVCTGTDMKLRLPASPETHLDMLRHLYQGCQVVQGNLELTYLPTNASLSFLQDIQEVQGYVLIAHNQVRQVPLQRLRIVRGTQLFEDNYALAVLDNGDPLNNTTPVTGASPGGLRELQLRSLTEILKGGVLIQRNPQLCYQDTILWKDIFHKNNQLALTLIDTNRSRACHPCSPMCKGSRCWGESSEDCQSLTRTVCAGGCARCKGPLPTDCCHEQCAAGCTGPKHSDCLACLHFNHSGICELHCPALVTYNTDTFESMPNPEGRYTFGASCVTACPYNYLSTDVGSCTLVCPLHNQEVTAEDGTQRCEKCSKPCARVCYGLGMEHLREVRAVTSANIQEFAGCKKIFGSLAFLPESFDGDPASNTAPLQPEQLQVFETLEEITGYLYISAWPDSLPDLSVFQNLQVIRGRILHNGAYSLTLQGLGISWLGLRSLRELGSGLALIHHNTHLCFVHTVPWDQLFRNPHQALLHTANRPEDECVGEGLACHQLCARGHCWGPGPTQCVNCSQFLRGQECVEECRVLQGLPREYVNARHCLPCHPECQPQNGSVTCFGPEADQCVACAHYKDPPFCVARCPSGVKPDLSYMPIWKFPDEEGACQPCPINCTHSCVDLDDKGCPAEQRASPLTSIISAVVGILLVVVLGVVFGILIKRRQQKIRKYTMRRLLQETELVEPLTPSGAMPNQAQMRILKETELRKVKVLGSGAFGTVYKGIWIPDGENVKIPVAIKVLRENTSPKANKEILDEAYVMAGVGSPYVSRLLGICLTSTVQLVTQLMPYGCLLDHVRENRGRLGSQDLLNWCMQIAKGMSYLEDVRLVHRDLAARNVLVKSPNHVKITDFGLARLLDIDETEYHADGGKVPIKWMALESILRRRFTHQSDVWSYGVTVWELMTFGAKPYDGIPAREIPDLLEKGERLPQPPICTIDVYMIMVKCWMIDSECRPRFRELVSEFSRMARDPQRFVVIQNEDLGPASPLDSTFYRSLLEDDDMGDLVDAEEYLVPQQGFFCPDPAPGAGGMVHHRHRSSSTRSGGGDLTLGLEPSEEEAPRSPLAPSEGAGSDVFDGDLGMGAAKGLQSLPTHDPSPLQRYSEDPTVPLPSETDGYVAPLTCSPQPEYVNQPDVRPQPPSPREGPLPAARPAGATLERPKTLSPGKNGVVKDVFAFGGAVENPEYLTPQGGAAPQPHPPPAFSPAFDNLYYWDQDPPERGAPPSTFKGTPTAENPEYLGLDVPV

CC(=NNC(=O)CN1C(=O)NC(c2ccccc2)(c2ccccc2)C1=O)c1ccccc1 [Compound 7, 2-(2,5-Dioxo-4,4-diphenylimidazolidin-1-yl)-N′-(1-phenylethylidene)acetohydrazide]
IC50 [1]: 47.5 ± 2.8 µM
IC50 [2]: 38.3 ± 2.2 µM
IC50 [3]: 55.8 ± 3.3 µM

CC(=NNC(=O)CN1C(=O)NC(c2ccccc2)(c2ccccc2)C1=O)c1ccccc1C [Compound 8, 2-(2,5-Dioxo-4,4-diphenylimidazolidin-1-yl)-N′-(1-(o-tolyl)ethylidene)acetohydrazide]
IC50 [1]: 37.6 ± 2.3 µM
IC50 [2]: 34.1 ± 2 µM
IC50 [3]: 25.4 ± 1.8 µM

CC(=NNC(=O)CN1C(=O)NC(c2ccccc2)(c2ccccc2)C1=O)c1ccc(C)cc1 [Compound 9, 2-(2,5-Dioxo-4,4-diphenylimidazolidin-1-yl)-N′-(1-(p-tolyl)ethylidene)acetohydrazide]
IC50 [1]: 71.2 ± 3.8 µM
IC50 [2]: 69 ± 3.9 µM
IC50 [3]: 29.7 ± 2.1 µM

CC(=NNC(=O)CN1C(=O)NC(c2ccccc2)(c2ccccc2)C1=O)c1ccc(Cl)cc1 [Compound 10, N′-(1-(4-Chlorophenyl)ethylidene)-2-(2,5-dioxo-4,4-diphenylimidazolidin-1-yl)acetohydrazide]
IC50 [4, 11]: 54.2 µM
IC50 WI-38 ([4]; normal fibroblast WI-38): low cytotoxicity
IC50 [1]: 17.9 ± 1.4 µM
SI (selectivity index) HCT-116 [1]: 3.0 and 3.02
IC50 [2]: 11.2 ± 0.9 µM
SI (selectivity index) MCF-7 [2]: 4.8 and 4.84
IC50 [5]: 0.67 ± 0.03 µM
IC50 [6]: 0.71 ± 0.02 µM
IC50 [3]: 10.7 ± 0.9 µM
SI (selectivity index) HePG-2 [3]: 5.0 and 5.07
IC50 [7, 12]: 13.2 µM

CC(=NNC(=O)CN1C(=O)NC(c2ccccc2)(c2ccccc2)C1=O)c1ccc(F)cc1 [Compound 11, 2-(2,5-Dioxo-4,4-diphenylimidazolidin-1-yl)-N′-(1-(4-fluorophenyl)ethylidene)acetohydrazide]
IC50 [1]: 28.3 ± 2.1 µM
IC50 [2]: 14.2 ± 1.2 µM
IC50 [3]: 21.1 ± 1.8 µM

CC(=NNC(=O)CN1C(=O)NC(c2ccccc2)(c2ccccc2)C1=O)c1ccc(C(F)(F)F)cc1 [Compound 12, 2-(2,5-Dioxo-4,4-diphenylimidazolidin-1-yl)-N′-(1-(4-(trifluoromethyl)phenyl)ethylidene)acetohydrazide]
IC50 [1]: 52.5 ± 3 µM
IC50 [2]: 45.8 ± 2.4 µM
IC50 [3]: 47.7 ± 2.7 µM

CC(=NNC(=O)CN1C(=O)NC(c2ccccc2)(c2ccccc2)C1=O)c1ccc(OC(F)(F)F)cc1 [Compound 13, 2-(2,5-Dioxo-4,4-diphenylimidazolidin-1-yl)-N′-(1-(4-(trifluoromethoxy)phenyl)ethylidene)acetohydrazide]
IC50 [4, 11]: 45.4 µM
IC50 WI-38 ([4]; normal fibroblast WI-38): low cytotoxicity
IC50 [1]: 20.1 ± 1.7 µM
SI (selectivity index) HCT-116 [1]: 2.2 and 2.25
IC50 [2]: 9.58 ± 0.8 µM
SI (selectivity index) MCF-7 [2]: 4.7 and 4.73
IC50 [5]: 0.61 ± 0.02 µM
IC50 [6]: 0.28 ± 0.01 µM
IC50 [3]: 13.9 ± 1.2 µM
SI (selectivity index) HePG-2 [3]: 3.2 and 3.25
IC50 [7, 12]: 14.5 µM

COc1ccccc1C(C)=NNC(=O)CN1C(=O)NC(c2ccccc2)(c2ccccc2)C1=O [Compound 14, 2-(2,5-Dioxo-4,4-diphenylimidazolidin-1-yl)-N′-(1-(2-methoxyphenyl)ethylidene)acetohydrazide]
IC50 [1]: 74 ± 3.9 µM
IC50 [2]: 59.1 ± 3.4 µM
IC50 [3]: 63.3 ± 3.8 µM

COc1cccc(C(C)=NNC(=O)CN2C(=O)NC(c3ccccc3)(c3ccccc3)C2=O)c1 [Compound 15, 2-(2,5-Dioxo-4,4-diphenylimidazolidin-1-yl)-N′-(1-(3-methoxyphenyl)ethylidene)acetohydrazide]
IC50 [1]: 53.9 ± 3.1 µM
IC50 [2]: 55.3 ± 3.2 µM
IC50 [3]: 45.1 ± 2.5 µM

COc1ccc(C(C)=NNC(=O)CN2C(=O)NC(c3ccccc3)(c3ccccc3)C2=O)cc1 [Compound 16, 2-(2,5-Dioxo-4,4-diphenylimidazolidin-1-yl)-N′-(1-(4-methoxyphenyl)ethylidene)acetohydrazide]
IC50 [1]: 36.5 ± 2.4 µM
IC50 [2]: 35.8 ± 2.1 µM
IC50 [3]: 27.3 ± 2 µM

COc1ccc(C(C)=NNC(=O)CN2C(=O)NC(c3ccccc3)(c3ccccc3)C2=O)cc1OC [Compound 17, N′-(1-(3,4-Dimethoxyphenyl)ethylidene)-2-(2,5-dioxo-4,4-diphenylimidazolidin-1-yl)acetohydrazide]
IC50 [1]: 26.8 ± 2 µM
IC50 [2]: 15.7 ± 1.3 µM
IC50 [3]: 19.6 ± 1.7 µM

COc1cc(C(C)=NNC(=O)CN2C(=O)NC(c3ccccc3)(c3ccccc3)C2=O)cc(OC)c1OC [Compound 18, 2-(2,5-Dioxo-4,4-diphenylimidazolidin-1-yl)-N′-(1-(3,4,5-trimethoxyphenyl)ethylidene)acetohydrazide]
IC50 [4, 11]: 60.8 µM
IC50 [1]: 39.6 ± 2.4 µM
IC50 [2]: 26 ± 1.6 µM
IC50 [3]: 37.2 ± 2.3 µM

CC(=NNC(=O)CN1C(=O)NC(c2ccccc2)(c2ccccc2)C1=O)c1ccc([N+](=O)[O-])cc1 [Compound 19, 2-(2,5-Dioxo-4,4-diphenylimidazolidin-1-yl)-N′-(1-(4-nitrophenyl)ethylidene)acetohydrazide]
IC50 [1]: 31.3 ± 2.1 µM
IC50 [2]: 20.4 ± 1.5 µM
IC50 [3]: 19.9 ± 1.8 µM

CC(=NNC(=O)CN1C(=O)NC(c2ccccc2)(c2ccccc2)C1=O)c1ccccn1 [Compound 20, 2-(2,5-Dioxo-4,4-diphenylimidazolidin-1-yl)-N′-(1-(pyridin-2-yl)ethylidene)acetohydrazide]
IC50 [1]: 46.7 ± 2.7 µM
IC50 [2]: 32.4 ± 1.9 µM
IC50 [3]: 49.1 ± 2.8 µM

CC(=NNC(=O)CN1C(=O)NC(c2ccccc2)(c2ccccc2)C1=O)c1ccncc1 [Compound 22, 2-(2,5-Dioxo-4,4-diphenylimidazolidin-1-yl)-N′-(1-(pyridin-4-yl)ethylidene)acetohydrazide]
IC50 [1]: 26 ± 1.9 µM
IC50 [2]: 13.1 ± 1.1 µM
IC50 [3]: 17.2 ± 1.6 µM

CC(=NNC(=O)CN1C(=O)NC(c2ccccc2)(c2ccccc2)C1=O)c1cccc2ccccc12 [Compound 23, 2-(2,5-Dioxo-4,4-diphenylimidazolidin-1-yl)-N′-(1-(naphthalen-1-yl)ethylidene)acetohydrazide]
IC50 [1]: 34.4 ± 2.3 µM
IC50 [2]: 28.1 ± 1.7 µM
IC50 [3]: 31.8 ± 2.1 µM

CC(=NNC(=O)CN1C(=O)NC(c2ccccc2)(c2ccccc2)C1=O)c1ccco1 [Compound 25, 2-(2,5-Dioxo-4,4-diphenylimidazolidin-1-yl)-N′-(1-(furan-2-yl)ethylidene)acetohydrazide]
IC50 [1]: 49.9 ± 2.9 µM
IC50 [2]: 47.3 ± 2.6 µM
IC50 [3]: 34.6 ± 2.1 µM

CC(=NNC(=O)CN1C(=O)NC(c2ccccc2)(c2ccccc2)C1=O)c1cccs1 [Compound 26, 2-(2,5-Dioxo-4,4-diphenylimidazolidin-1-yl)-N′-(1-(thiophen-2-yl)ethylidene)acetohydrazide]
IC50 [1]: 87.5 ± 4.6 µM
IC50 [2]: 76.8 ± 4.2 µM
IC50 [3]: 32.3 ± 2.2 µM

CC(=NNC(=O)CN1C(=O)NC(c2ccccc2)(c2ccccc2)C1=O)c1ccc(Cl)s1 [Compound 27, N′-(1-(5-Chlorothiophen-2-yl)ethylidene)-2-(2,5-dioxo-4,4-diphenylimidazolidin-1-yl)acetohydrazide]
IC50 [1]: 33.2 ± 2.2 µM
IC50 [2]: 19.7 ± 1.5 µM
IC50 [3]: 16.8 ± 1.6 µM

COc1cccc2c1C(=O)c1c(O)c3c(c(O)c1C2=O)C[C@@](O)(C(=O)CO)C[C@@H]3O[C@H]1C[C@H](N)[C@H](O)[C@H](C)O1 [Doxorubicin, reference compound]
IC50 [3]: 4.5 ± 0.2 µM
IC50 [7, 13]: 4.17 to 5.23 µM

C#Cc1cccc(Nc2ncnc3cc(OCCOC)c(OCCOC)cc23)c1 [Erlotinib, reference compound]
IC50 ([4]; WI-38, read-out: IC50 WI-38): 46.5 µM
IC50 [1]: 8.53 ± 0.5 µM
BCL-2 expression level ([8]; 2 µM): 13.96 ng/mL
BCL-2 expression level ([8]; 10 μM): 3.73 ng/mL
IC50 [2]: 5.18 ± 0.4 µM
Comment (cell cycle arrest) [9]: Cell cycle arrest at G2/M
%G0–G1 ([9]; 2 µM): 46.12%
%G2/M ([9]; 2 µM): 31.05%
%S ([9]; 2 µM): 22.83%
%G0–G1 ([9]; 10 μM): 35.89%
%G2/M ([9]; 10 μM): 48.39%
%S ([9]; 10 μM): 15.72%
Comment (cell cycle arrest) ([9]; listed as erlotinib): cell cycle arrest appeared at the G2/M phase
MCL-1 expression level ([10]; 2 µM): 560.59 pg/mL
MCL-1 expression level ([10]; 10 μM): 162.37 pg/mL
IC50 [3]: 7.9 ± 0.6 µM
IC50 [7, 13]: 5.18 to 8.53 µM
